From patent publication US7767659B2, “Synthesis of naturally occurring ecteinascidins and related compounds” (Pharma Mar, S.A., priority 2002, dated 2010)
Like-named read-outs stand apart in the source and are kept apart here.

Tests used:
[1] = system: K-562; test: Inhibition of cells growth by colorimetric assay (SRB); conditions: Homo sapiens, K562, 48 h
Experimental: (§1) This form of the assay employs 96 well cell culture microplates of 9 mm diameter (Faircloth, 1988; Mosmann, 1983). Most of the cell lines are obtained from American Type Culture Collection (ATCC) derived from different human cancer types.
(§2) Cells are maintained in RPMI 1640 10% FBS, supplemented with 0.1 g/l penicillin and 0.1 g/l streptomycin sulfate and then incubated at 37° C., 5% CO2 and 98% humidity. For the experiments, cells were harvested from subconfluent cultures using trypsin and resuspended in fresh medium before plating.
(§3) Cells are seeded in 96 well microtiter plates, at 5×10^3 cells per well in aliquots of 195 μl medium, and they are allowed to attach to the plate surface by growing in drug free medium for 18 hours. Afterward, samples are added in aliquots of 5 μl in a ranging from 10 to 10^−8 μg/ml, dissolved in DMSO/EtOH/PBS (0.5:0.5:99). After 48 hours exposure, the antitumor effect are measured by the SRB methodology: cells are fixed by adding 50 μl of cold 50% (wt/vol) trichloroacetic acid (TCA) and incubating for 60 minutes at 4° C. Plates are washed with deionized water and dried. One hundred μl of SRB solution (0.4% wt/vol in 1% acetic acid) is added to each microtiter well and incubated for 10 minutes at room temperature. Unbound SRB is removed by washing with 1% acetic acid. Plates are air dried and bound stain is solubilzed with Tris buffer. Optical densities are read on a automated spectrophotometric plate reader at a single wavelength of 490 nm.
(§4) The values for mean +/− SD of data from triplicate wells are calculated. Some parameters for cellular responses can be calculated: GI=growth inhibition, TGI=total growth inhibition (cytostatic effect) and LC=cell killing (cytotoxic effect).

[2] = system: LNCaP; test: as above; conditions: Homo sapiens, LNCaP, 48 h
Experimental: as §1, §2, §3, §4

[3] = system: A-549; test: cells; conditions: Homo sapiens, A549, 48 h
Experimental: as §1, §2, §3, §4

[4] = system: HT-29; test: cells; conditions: Homo sapiens, HT-29, 48 h
Experimental: as §1, §2, §3, §4

[5] = system: LoVo; test: cells; conditions: Homo sapiens, LoVo, 48 h
Experimental: as §1, §2, §3, §4

[6] = system: DU-145; test: Inhibition of cells growth by colorimetric assay (SRB); conditions: Homo sapiens, DU-145, 48 h
Experimental: as §1, §2, §3, §4

[7] = system: HeLa-APL; test: as above; conditions: Homo sapiens, 48 h
Experimental: as §1, §2, §3, §4

[8] = system: HeLa; test: as above; conditions: Homo sapiens, HeLa, 48 h
Experimental: as §1, §2, §3, §4

[9] = system: IGROV-1; test: as above; conditions: Homo sapiens, IGROV-1, 48 h
Experimental: as §1, §2, §3, §4

[10] = system: IGROV-ET; test: as above; conditions: Homo sapiens, 48 h
Experimental: as §1, §2, §3, §4

[11] = system: LoVo-Dox; test: as above; conditions: Homo sapiens, 48 h
Experimental: as §1, §2, §3, §4

[12] = system: PANC-1; test: as above; conditions: Homo sapiens, PANC-1, 48 h
Experimental: as §1, §2, §3, §4

[13] = system: SK-MEL-28; test: as above; conditions: Homo sapiens, SK-MEL-28, 48 h
Experimental: as §1, §2, §3, §4

## C=CCN1[C@@H]2c3c(cc(C)c(OC)c3OCOCCOC)C[C@H]1[C@H](C#N)N1C2[C@@H]2SC[C@@H](NC(=O)OC(C)(C)C)C(=O)OC[C@H]1c1c3c(c(C)c(OC(C)=O)c12)OCO3 (some centres unmarked) [compound 11]
[1]; read-out: GI50 K562
  GI50: 4760 nM
[2]; read-out: GI50 LNCAP
  GI50: 5840 nM

## COc1cc2c(cc1O)CCN[C@]21C[S+]([O-])[C@@H]2c3c(OC(C)=O)c(C)c4c(c3[C@H](COC1=O)N1C2C2c3c(cc(C)c(OC)c3O)C[C@@H]([C@@H]1C#N)N2C)OCO4 (some centres unmarked) [compound 17]
[3]; read-out: GI50 A549
  GI50: 22.9 nM
[3]; read-out: LC50 A549
  CC50: 117 nM
[3]; read-out: TGI A549
  IC (TGI): 52.1 nM
[4]; read-out: GI50 HT29
  GI50: 39.1 nM
[4]; read-out: LC50 HT29
  CC50: 12700 nM
[4]; read-out: TGI HT29
  IC (TGI): 86 nM

## COc1c(C)cc2c(c1O)[C@@H]1C3[C@@H]4SCC(N)C(=O)OC[C@@H](c5c6c(c(C)c(OC(C)=O)c54)OCO6)N3[C@@H](C#N)C(C2)N1C (some centres unmarked) [compound 18]
[3]; read-out: GI50 A549
  GI50: 161 nM
[3]; read-out: LC50 A549
  CC50: 8040 nM
[3]; read-out: TGI A549
  IC (TGI): 643 nM
[4]; read-out: GI50 HT29
  GI50: 80.4 nM
[4]; read-out: LC50 HT29
  CC50: 80400 nM
[4]; read-out: TGI HT29
  IC (TGI): 643 nM

## COc1c(C)cc2c(c1O)[C@H]1N[C@@H](C2)[C@H](C#N)N2C1[C@@H]1SCC(=O)C(=O)OC[C@H]2c2c3c(c(C)c(OC(C)=O)c21)OCO3 (some centres unmarked) [compound 42]
[3]; read-out: A549 GI50
  GI50: 57.4 nM
[3]; read-out: A549 LC50
  CC50: 2370 nM
[3]; read-out: A549 TGI
  IC (TGI): 147 nM
[4]; read-out: HT29 GI50
  GI50: 39.7 nM
[4]; read-out: HT29 LC50
  CC50: 16500 nM
[4]; read-out: HT29 TGI
  IC (TGI): 131 nM
[5]; read-out: LOVO GI50
  GI50: 37.7 nM
[5]; read-out: LOVO LC50
  CC50: 2930 nM
[5]; read-out: LOVO TGI
  IC (TGI): 72.6 nM
[6]; read-out: DU145 GI50
  GI50: 37.4 nM
[6]; read-out: DU145 LC50
  CC50: 247 nM
[6]; read-out: DU145 TGI
  IC (TGI): 82.5 nM
[7]; read-out: HELA-APL GI50
  GI50: 34.6 nM
[7]; read-out: HELA-APL LC50
  CC50: 130 nM
[7]; read-out: HELA-APL TGI
  IC (TGI): 67 nM
[8]; read-out: HELA GI50
  GI50: 28.1 nM
[8]; read-out: HELA LC50
  CC50: 139 nM
[8]; read-out: HELA TGI
  IC (TGI): 62.5 nM
[9]; read-out: IGROV GI50
  GI50: 28.6 nM
[9]; read-out: IGROV LC50
  CC50: 153 nM
[9]; read-out: IGROV TGI
  IC (TGI): 66.3 nM
[10]; read-out: IGROV-ET GI50
  GI50: 280 nM
[10]; read-out: IGROV-ET LC50
  CC50: 16500 nM
[10]; read-out: IGROV-ET TGI
  IC (TGI): 1020 nM
[1]; read-out: K562 GI50
  GI50: 17.8 nM
[1]; read-out: K562 LC50
  CC50: 694 nM
[1]; read-out: K562 TGI
  IC (TGI): 59.6 nM
[2]; read-out: LNCAP GI50
  GI50: 5.96 nM
[2]; read-out: LNCAP LC50
  CC50: 63.7 nM
[2]; read-out: LNCAP TGI
  IC (TGI): 22.4 nM
[11]; read-out: LOVO-DOX GI50
  GI50: 515 nM
[11]; read-out: LOVO-DOX LC50
  CC50: 16500 nM
[11]; read-out: LOVO-DOX TGI
  IC (TGI): 1440 nM
[12]; read-out: PANC-1 GI50
  GI50: 39 nM
[12]; read-out: PANC-1 LC50
  CC50: 5270 nM
[12]; read-out: PANC-1 TGI
  IC (TGI): 11.5 nM
[13]; read-out: MEL-28 GI50
  GI50: 30.1 nM
[13]; read-out: MEL-28 LC50
  CC50: 107 nM
[13]; read-out: MEL-28 TGI
  IC (TGI): 56.8 nM

## C=CCOc1c(C)c2c(c3c1CC1[C@H]4c5c(cc(C)c(OC)c5O)C[C@@H]([C@H](C#N)N1[C@H]3CNC(=O)[C@H](CSCC1c3ccccc3-c3ccccc31)NC(=O)OC(C)(C)C)N4C)OCO2 (some centres unmarked) [compound 69]
[3]; read-out: A549 GI50
  GI50: 5570 nM
[3]; read-out: A549 LC50
  CC50: 55700 nM
[3]; read-out: A549 TGI
  IC (TGI): 22300 nM
[4]; read-out: HT29 GI50
  GI50: 1110 nM
[4]; read-out: HT29 LC50
  CC50: 11100 nM
[4]; read-out: HT29 TGI
  IC (TGI): 1110 nM

## C=CCOc1c(C)c2c(c3c1CC1[C@H]4c5c(cc(C)c(OC)c5OCOCCOC)C[C@@H]([C@H](C#N)N1[C@H]3CNC(=O)[C@H](CSCC1c3ccccc3-c3ccccc31)NC(=O)OC(C)(C)C)N4C)OCO2 (some centres unmarked) [compound 70]
[3]; read-out: A549 GI50
  GI50: 5060 nM
[3]; read-out: A549 LC50
  CC50: 50600 nM
[3]; read-out: A549 TGI
  IC (TGI): 50600 nM
[4]; read-out: HT29 GI50
  GI50: 10100 nM
[4]; read-out: HT29 LC50
  CC50: 50600 nM
[4]; read-out: HT29 TGI
  IC (TGI): 10100 nM

## COCCOCOc1c(OC)c(C)cc2c1[C@@H]1C3CC4(O)C(=O)C(C)=C5OCOC5=C4[C@H](CNC(=O)[C@H](CSCC4c5ccccc5-c5ccccc54)NC(=O)OC(C)(C)C)N3[C@@H](C#N)[C@H](C2)N1C (some centres unmarked) [compound 72]
[3]; read-out: A549 GI50
  GI50: 51.9 nM
[3]; read-out: A549 LC50
  CC50: 4150 nM
[3]; read-out: A549 TGI
  IC (TGI): 104 nM
[4]; read-out: HT29 GI50
  GI50: 1040 nM
[4]; read-out: HT29 LC50
  CC50: 5190 nM
[4]; read-out: HT29 TGI
  IC (TGI): 1040 nM
